Experimental data taken from patent publication US20130317096A1, “SYNERGISTIC INTERACTION OF AT LEAST ONE VITAMIN E COMPONENT AND TYROSINASE INHIBITORS FOR DERMATOLOGICAL APPLICATIONS” (Davos Life Science Pte Ltd, priority 2010, published 2013).
“Also recorded” adds a separate entry of the source.

Tests used:
Type in all cases: cell-based, mouse
[1] = tested on: B16 melanoma cells; experiment: Anti-pigmentation effect, photographs of cell pellets
Description: At different time points, cells were harvested using trysin-EDTA and the cell pellets were washed once with phosphate-buffered saline (PBS). A sample amount from each compound treatment group was divided into two equal parts. These cell pellets were then stored at −80° C. prior to the measurement of the tyrosinase activity and melanin content.

[2] = tested on: tyrosinase mRNA; experiment: Reverse transcriptase PCR of tyrosinase mRNA; conditions: B16 melanoma cells
Text: Total RNA was isolated using Trizol reagent according to the manufacturer's protocol (Invitrogen, Carlsbad, Calif., USA). cDNA was synthesized using the SuperScript First Strand Synthesis System (Invitrogen, Carlsbad, Calif., USA) and was then amplified by PCR with tyrosinase-specific primers (forward primer, tyrosinase-S,5′-[…]-3′ [−2236/−2217] (SEQ ID NO: 1) and reverse primer, tyrosinase-AS,5′-[…]-3′ [+63/+42]) (SEQ ID NO: 2) and GAPDH specific primers: 5′ to 3′F […] (SEQ ID NO: 3); 5′ to 3′R […] (SEQ ID NO: 4). The PCR cycling protocol was as follows: 30 cycles for 10 min at 95° C., 30 sec at 95° C., 30 sec at 55° C., 1 min at 72° C., and 10 min at 72° C. Glyceraldehyde 3-phosphate dehydrogenase (GAPDH) was amplified as an internal control. The PCR products were electrophoresed on a 2% agarose gel and analyzed using a gel documentation system.

[3] = tested on: cleaved caspase 3 and PARP; experiment: Western blot of apoptotic molecules; conditions: B16 melanoma cells
[4] = tested on: B16 melanoma cells; experiment: MTT cell viability assay; conditions: 24 hrs of treatment; for B16 melanoma cell viability / proliferation rate: increasing dosages
Description: B16 mouse melanoma cells were purchased from (ATCC, Manassas, Va., USA).
The base medium for the cell line was Dulbecco's modified Eagle's medium (DMEM). To make the complete growth medium, fetal bovine serum (final concentration, 10%) was added to the base medium. Tocotrienol (T3) and tocopherol (TP) isomers and the palm tocotrienol-rich fraction (TRF) were purified from a palm fatty acid distillate (PFAD) using molecular distillation and Novasep® equipment (Novasep, Pompey, France). The extraction facility is located in Tuas, Singapore. The PFAD feed was purchased from Kuala Lumpur Kepong Berhad (Kuala Lumpur, Malaysia). The purity of the vitamin E isomers was verified by HPLC and gas chromatography (GC) percentage peak area.
For the cell viability study, 5×10^3 cells re-suspended in 100 μl of medium were plated into each well of a 96-well plate. The cells were then treated with different concentrations of the vitamin-E isomers for 24 hrs. After the treatment, 20 μl of MTT solution (1 mg/ml in PBS; Sigma-Aldrich, St. Louis, Mo., USA) was added to each well and the cells were incubated at 37° C. for 2 hrs. The formazan crystals were then re-suspended in 200 μl of DMSO and the intensity at 595 nm was measured.

[5] = tested on: tyrosinase; experiment: Western blot of tyrosinase protein expression in B16 melanoma cells; conditions: for time response of tyrosinase suppression: single dose, 24 hrs versus 48 hrs
Description: Carcinogenesis, 2006, 27, 2180-9. Briefly, cell lysates were prepared by suspending cell pellets in lysis buffer (50 mmol/l Tris-HCl [pH 8.0], 150 mmol/l NaCl, 1% NP40, 0.5% deoxycholate, 0.1% SDS, […], 1 μg/ml leupeptin, and 1 mmol/l phenylmethylsulfonyl fluoride). The protein concentration was measured using the DC Protein Assay kit (Bio-Rad, Hercules, Calif., USA). An equal amount of protein (30 μg) was loaded onto a 10% SDS polyacrylamide gel for electrophoresis, then transferred onto a polyvinylidene difluoride membrane (Amersham, Piscataway, N.J., USA). The membrane was then incubated with primary antibodies for 1 hr at room temperature against tyrosinase, Id1, and beta-actin (Santa Cruz Biotechnology, Inc., Santa Cruz, Calif., USA). After incubation with appropriate secondary antibodies, signals were visualized by an ECL Western blotting system (Amersham). The expression of β-actin was assessed as an internal loading control for total cell lysate.

[6] = tested on: tyrosinase; experiment: UV-induced tyrosinase protein expression, Western blot; conditions: UV 1, 10, 30 and 60 minutes
Description: The UVB source for cell irradiation was provided using a UVP UVM-57 handheld UV lamp (UVP Inc, Upland, Calif., USA).
Briefly, cell lysates were prepared by suspending cell pellets in lysis buffer (50 mmol/l Tris-HCl [pH 8.0], 150 mmol/l NaCl, 1% NP40, 0.5% deoxycholate, 0.1% SDS, 1 mg/ml aprotinin, 1 μg/ml leupeptin, and 1 mmol/l phenylmethylsulfonyl fluoride). The protein concentration was measured using the DC Protein Assay kit (Bio-Rad, Hercules, Calif., USA). An equal amount of protein (30 μg) was loaded onto a 10% SDS polyacrylamide gel for electrophoresis, then transferred onto a polyvinylidene difluoride membrane (Amersham, Piscataway, N.J., USA). The membrane was then incubated with primary antibodies for 1 hr at room temperature against tyrosinase, Id1, and beta-actin (Santa Cruz Biotechnology, Inc., Santa Cruz, Calif., USA). After incubation with appropriate secondary antibodies, signals were visualized by an ECL Western blotting system (Amersham). The expression of β-actin was assessed as an internal loading control for total cell lysate.

[7] = 0.05% (3.5 mM kojic acid, 4.5 mM sodium lactate)

Molecule	cell pellet pigmentation ([1]; 20 μM)	tyrosinase mRNA [2]	induction of apoptotic molecules (cleaved caspase 3 and PARP) [3]	B16 melanoma cell viability / proliferation rate [4]	tyrosinase protein expression ([5]; 20 μM treatment)	also measured
O=c1cc(CO)occ1O [kojic acid]	comparable pigmentation level to controls	not affected; also recorded: No change of tyrosinase mRNA	induced cellular apoptosis; also recorded: induced critical apoptotic molecules in a dose-dependent manner	inhibit B16 melanoma cell viability at high concentrations		cell pellet pigmentation [1, 7]: lighter cell pigmentation; concentration with anti-proliferation effect [4]: ≥ 0.5%
CC(O)C(=O)[O-].[Na+] (stereo not drawn) [sodium lactate, reference compound]	comparable pigmentation level to controls	not affected; also recorded: No change of tyrosinase mRNA			did not result in observable down-regulation; also recorded: does not suppress tyrosinase protein expression	tyrosinase protein suppression, dose response and relative potency ([5]; increasing dosage): observed only at much higher concentration; time response of tyrosinase suppression [5]: opposite observation; also recorded: diminished after 48 hrs; tyrosinase protein expression ([5]; up to 100 μM): does not suppress tyrosinase protein expression; cell pellet pigmentation [1, 7]: Lighter pigmentation
Cc1c(C)c2c(c(C)c1O)CC[C@@](C)(CCC[C@H](C)CCC[C@H](C)CCCC(C)C)O2 [α-tocopherol, 5,7,8-trimethyltocol]	comparable pigmentation level to controls	No change of tyrosinase mRNA				time response of tyrosinase suppression [5]: no impact on the suppression of tyrosinase; tyrosinase mRNA ([2]; listed as αTP): not affected; tyrosinase protein expression of B16 cells exposed to UV [6]: not able to block UVB-induced activation of tyrosinase at all time points tested
CC(C)=CCC/C(C)=C/CC/C(C)=C/CC[C@]1(C)CCc2c(C)c(O)cc(C)c2O1 [β-tocotrienol, 5,8-dimethyltocotrienol]			induced critical apoptotic molecules in a dose-dependent manner	inhibited the proliferation rate of B16 melanoma cells in a dose-dependent fashion; also recorded: inhibit B16 melanoma cell viability at high concentrations		induction of apoptotic molecules (cleaved caspase 3 and PARP) ([3]; listed as β-T3): induced cellular apoptosis
CC(=O)Oc1cc2c(c(C)c1C)OC(C)(CC/C=C(\C)CC/C=C(\C)CCC=C(C)C)CC2 (stereo not drawn) [γT3 acetate, γ-tocotrienol acetate]					suppresses tyrosinase protein expression	
CC(C)=CCCC(C)=CCCC(C)=CCCC1(C)CCc2cc(OC(=O)CCC(=O)O)c(C)c(C)c2O1 (stereo not drawn) [γT3 succinate, γ-tocotrienol succinate]						tyrosinase protein expression ([5]; up to 60 μM): does not suppress tyrosinase protein expression
CC(=O)Oc1cc(C)c2c(c1)CCC(C)(CCC=C(C)CCC=C(C)CCC=C(C)C)O2 (stereo not drawn) [δT3 acetate, δ-tocotrienol acetate]					suppresses tyrosinase protein expression	
alpha arbutin [reference compound]	comparable pigmentation level to controls		induced critical apoptotic molecules in a dose-dependent manner	inhibit B16 melanoma cell viability at high concentrations		concentration at which suppression of tyrosinase is observed [5]: 1 mM; tyrosinase protein expression ([5]; up to 60 μM): does not suppress tyrosinase protein expression; cell pellet pigmentation ([1]; 1 mM): lighter cell pigmentation
